# From patent US20250115642A1, “PEPTIDE HAVING ANTIBACTERIAL, ANTI-INFLAMMATORY OR TISSUE REGENERATION ABILITY AND USE THEREOF” (priority 2022, published 2025)
# What was measured:
# IL-6 = assay: ELISA of IL-6 secreted by LPS-treated THP-1 macrophages; assay type: cell-based, human; conditions: 1 μg/ml LPS, 200 μM peptide, 24 hours, compared with 20 ng/ml IL-4
# Method: (§1) Anti-inflammatory activity was verified using human monocyte cell lines (THP-1, ATCC, TIB-202). In the case of monocyte cell lines, PMA (Phorbol 12-myristate 13-acetate, Merck, P1585) was inoculated to differentiate monocytes into macrophages, and then treated with 1 μg/ml LPS (lipopolysaccharide, Merck, L3024), an inflammation inducer. […] The amount of pro-inflammatory cytokines IL-6 (R&D system, D6050) and TNF-α secreted by cells present in the medium was confirmed through ELISA (enzyme-linked immunosorbent assay).
# Raw264.7 cells = assay: Cell penetration ability at the cellular level (confocal microscopy); assay type: cell-based, mouse; conditions: Rhodamine B labeled peptide, 50, 100 and 200 μM, 1 hour
# Method: Raw264.7 cells were distributed 3×10^4 each into a 4-well chamber and cultured in DMEM medium for 24 hours to stabilize the cells. After 24 hours, fluorescently labeled peptide was added to the medium at concentrations of 50, 100, and 200 μM. After 1 hour of peptide treatment, a degree of penetration of the peptide into cells was observed using a confocal scanning fluorescence microscope. Cell nuclei were stained using 4′,6-diamidino-2-phenylindole (DAPI, Thermo Fisher, D1306). DIC represents the case observed under a general microscope, Nuceli represents the nucleus of a cell, Peptide represents the degree of penetration of a peptide bound to rhodamine B, and MERGE represents an image that overlaps images of DIC, Nuclei, and the penetrated peptide.
# Porphyromonas gingivalis = assay: Inhibiting growth of periodontitis-causing bacteria (absorbance 600 nm); assay type: cell-based; conditions: Pg
# Method: (§2) To evaluate the antibacterial activity, representative periodontitis-causing bacteria, Aggregatibacter actinomycetemcomitans and Porphyromonas gingivalis, were used. Each bacterium was inoculated into BHI (brain heart infusion) liquid medium and cultured in an anaerobic incubator at 37° C. and 120 rpm for 48 hours. After incubation, the peptide having the amino acid sequence of SEQ ID NO: 1 was treated at 100 μM, 250 μM, and 500 μM. As a positive control, minocycline (Merck, M9511) was inoculated at 500 ng/ml, and then 24 hours later, the absorbance was measured at 600 nm using a spectrophotometer to confirm a degree of bacterial growth.
# [1] = test system: Aggregatibacter actinomycetemcomitans; assay: as above; assay type: cell-based; conditions: Aa
# Method: as §2
# [2] = test system: artificial biofilm of Aggregatibacter actinomycetemcomitans and Porphyromonas gingivalis; assay: Antibacterial activity in artificial biofilm on titanium disk (LIVE/DEAD staining); assay type: cell-based; conditions: 24 hours after inoculation; 50 μg/ml = 29 μM
# Method: Periodontitis-causing bacteria exist in the oral cavity in a form of a biofilm, and thus in order to imitate this, an artificial biofilm was created on the surface of a titanium disk using A. a. (Aggregatibacter actinomycetemcomitans) and P. g. (Porphyromonas gingivalis) bacteria. Saliva and bacteria were mixed on a titanium disk, placed in BHI liquid medium, and cultured in an anaerobic incubator at 37° C. After 72 hours, 50 μg/ml (=29 μM), 100 μg/ml (=58 μM), 250 μg/ml (=144 μM), and 500 μg/ml (=288 μM) peptides and 1 μg/ml minocycline as a positive control were inoculated. 24 hours later after inoculation, a titanium disk with biofilm formed on the surface was obtained and the biofilm was stained using the Filmtracer LIVE/DEAD Biofilm Viability Kit (Thermo Fisher, L10316). Live bacteria are stained green, and dead bacteria are stained red. The titanium disk was observed using a confocal scanning fluorescence microscope.
# TNF-α = assay: ELISA of TNF-α secreted by LPS-treated THP-1 macrophages; assay type: cell-based, human; conditions: 1 μg/ml LPS, 200 μM peptide, 24 hours, compared with 20 ng/ml IL-4
# Method: as §1
# phosphorylated NF-κB = assay: Western blot of pNFkB in LPS-treated Raw264.7 cells; assay type: cell-based, mouse
# Method: (§3) Raw264.7 cells were purchased from ATCC (American Type Culture Collection) and used in the experiment. Raw264.7 cells were cultured in a CO2 incubator at 37° C. supplied with 5% CO2 and 95% air using DMEM (Dulbecco's modified Eagle medium) medium supplemented with 10% FBS and 100 units/ml antibiotics (penicillin-streptomycin).
# (§4) Raw264.7 cells were treated with 200 μM of the peptide having the amino acid sequence of SEQ ID NO: 1 for 30 minutes, and then treated with 1 μg/ml LPS (lipopolysaccharide, Merck, L3024). After 8 hours, the treated cells were collected, protease inhibitor cocktail and phosphatase inhibitor cocktail were added to Radioimmunoprecipitation assay buffer (RIPA buffer solution, Thermo Fisher, 89900), and the cells were treated to lyse the cells. After centrifuging the cell lysate and collecting the supernatant, the concentration of the cell lysate was measured using a bicinchoninic acid assay (BCA assay, Thermo Fisher, 23227), and RIPA buffer solution was added thereto to prepare the cell lysate to a final concentration of 5 mg/mL. Then, it was mixed with a buffer solution including 1M Tris-HCl (pH 6.8), 50% glycerol, and 10% SDS in a 4:1 ratio, and then sodium dodecyl sulfate-poly acrylamide gel electrophoresis (SDS-PAGE) was performed. […]
# phosphorylated IκBα = assay: Western blot of plkBa in LPS-treated Raw264.7 cells; assay type: cell-based, mouse
# Method: as §3, §4
# [3] = 200 μM peptide for 30 minutes, then 1 μg/ml LPS, 8 hours
sequence,measurement,setting,value
"GKCSTRGRKSSRRKK (PEPTIDE HAVING ANTIBACTERIAL, …ON OR TISSUE …ON) [SEQ ID NO: 1, 15-mer peptide having antibacterial, anti-inflammatory and cell penetrating ability]",IL-6 value,IL-6,lowered to a similar level as when treated with IL-4
same,concentration dependence of fluorescence intensity in cells,Raw264.7 cells,"as the concentration of peptide increased, the intensity of fluorescence also increased"
same,fluorescence of rhodamine B in cells,Raw264.7 cells,fluorescence of rhodamine B (red) could be confirmed
same,effect compared to minocycline,"Porphyromonas gingivalis; all concentration ranges (100, 250, 500 μM) vs minocycline 500 ng/ml",better effect than minocycline
same,survival rate of bacteria,"Porphyromonas gingivalis; at 100 μM or more, 24 hours",less than or equal to 50%
same,survival rate of bacteria,"[1]; at 250 μM or more, 24 hours",less than or equal to 50%
same,survival rate compared to minocycline,[1]; peptide 500 μM vs minocycline 500 ng/ml,"higher than when treated with minocycline 500 ng/ml, but showed a similar effect"
same,concentration at which killed bacteria (red) were observed in biofilm,[2],≥ 50 µg/mL
same,TNF-α value,TNF-α,lowered to a similar level as when treated with IL-4
same,expression of pNFκB,phosphorylated NF-κB; [3],suppressed
same,effect on the expression of pNFκB,"phosphorylated NF-κB; only the peptide, without LPS",no effect
same,expression of plkBa,phosphorylated IκBα; [3],suppressed
same,effect on the expression of plkBa,"phosphorylated IκBα; only the peptide, without LPS",no effect
